Data published in US20250064762A1, “A SUBSTITUTED AROMATIC DICARBONIC ACID AMIDE AS AN INHIBITOR OF THE FERROPTOSIS SUPPRESSOR PROTEIN-1 (FSP1)” (JULIUS-MAXIMILIANS-UNIVERSITÄT WÜRZBURG, priority 2021, published 2025).

Columns and labels:
[1] = molecular target: T1, human FSP1 (Homo sapiens, UniProt Q9BRQ8); experiment: Biolayer interferometry binding kinetics, human FSP1; conditions: 25° C.
T1 construct: His6 (N, cleaved yes); made in house; host or cells: Escherichia coli BL21 pG-Tf2
T1 sequence (Q9BRQ8 1-373): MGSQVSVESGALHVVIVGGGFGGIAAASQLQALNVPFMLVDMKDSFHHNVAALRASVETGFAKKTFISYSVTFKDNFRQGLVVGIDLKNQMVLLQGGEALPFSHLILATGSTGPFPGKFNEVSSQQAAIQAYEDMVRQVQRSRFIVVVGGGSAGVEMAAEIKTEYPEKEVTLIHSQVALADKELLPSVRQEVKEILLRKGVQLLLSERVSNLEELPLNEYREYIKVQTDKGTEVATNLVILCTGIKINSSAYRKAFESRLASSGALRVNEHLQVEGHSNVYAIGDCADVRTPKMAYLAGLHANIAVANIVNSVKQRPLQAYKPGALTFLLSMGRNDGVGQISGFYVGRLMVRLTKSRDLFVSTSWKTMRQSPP
Method: Purified, AviTag-fused mFSP1 or hFSP1 were enzymatically biotinylated with the E. coli biotin ligase BirA. To this end, FSP1 proteins (48 μM) were incubated with purified GST-BirA in the presence of ATP and D-biotin (Sigma Aldrich) as described (Fairhead et al., 2015). GST-BirA was removed using glutathione Sepharose 4 Fast Flow (GE Healthcare), and samples were dialyzed against TNM (pH 7.4) to remove free biotin.
Biotinylated, AviTag-fused mFSP1 or hFSP1 (1.5 μM in TNM buffer supplemented with 0.005% (v/v) Tween-20) was immobilized on streptavidin-coated biosensors (Super Streptavidin/SSA Dip and Read Biosensors, ForteBio). The sensors were then quenched with 27 μM biocytin (Sigma Aldrich), and binding kinetics were measured at 25° C. on a ForteBio Octet Red 96e instrument. Dissociation was initiated after 90 s. Reference sensors were quenched with 27 μM biocytin. Raw data was double referenced, and a global exponential regression 1:1 model was applied for kinetic analyses. Data are mean values±S.D. of at least n=4 measurements. KD, dissociation constant; Kon, on-rate constant; Koff, off-rate constant.
We also determined the CPBA and iFSP1 on-rate, off-rate and dissociation constants, which are associated with the binding and unbinding reaction of target and inhibitor. […]

[2] = molecular target: T1, human FSP1; experiment: In vitro FSP1 oxidoreductase (NADH consumption) assay, human FSP1; type: biochemical; conditions: resazurine or coQ1 as electron acceptor
Method: FSP1 activity assays were performed using recombinant, purified murine or human FSP1, NADH, and resazurine or coenzyme-Q1 (coQ1) as electron acceptor molecules. The following conditions were used: 200 μM resazurine were reduced with 750 nM mFSP1 or 150 nM hFSP1; 100 μM coQ1 was reduced with 400 nM mFSP1; and 137 μM coQ1 were reduced with 200 nM hFSP1. The consumption of NADH (500 μM) was measured at 340 nm in phosphate-buffered saline (80 mM Na3PO4, 300 mM NaCl; pH 7.0) at room temperature on a CLARIOstar microplate reader (BMG Labtech). Initial rates were determined, and data were fitted by linear regression using GraphPad Prism software, version 9.1.2.
In order to determine inhibition of FSP1 by CPBA, FSP1 activity was measured […] either CPBA or iFSP1 as a positive control. In vitro FSP1 oxidoreductase activity assays were performed using recombinant, purified murine or human FSP1, NADH, and resazurine or coenzyme-Q1 (coQ1) as electron acceptor molecules as described above (see FIG. 19).
In vitro FSP1 activity assays with human (see FIG. 22 C) or murine (see FIG. 22 D) FSP1 were performed as described above. Shown are NADH consumption assays using recombinant, purified human or mouse FSP1 (hFSP1, mFSP1) and resazurine or coenzyme-Q1 (CoQ1) as electron acceptor molecules.

| SMILES | affinity for human FSP1 [1] | inhibition of human FSP1 activity [2] |
| --- | --- | --- |
| O=C(Nc1ccccc1C(=O)O)c1ccc(Oc2ccc(C(=O)Nc3ccccc3C(=O)O)cc2)cc1 [CPBA, 2-[[4-[4-[(2-carboxyphenyl)carbamoyl]phenoxy]benzoyl]amino]-benzoic acid] | the affinity of iFSP1 for human FSP1 exceeds the affinity of CPBA for human FSP1 | inhibits human and murine FSP1 activity |
| Cc1ccc(-c2c(C#N)c(N)n3c(nc4ccccc43)c2C#N)cc1 [iFSP1, reference compound] | the affinity of iFSP1 for human FSP1 exceeds the affinity of CPBA for human FSP1 | is an inhibitor of human FSP1 |
